In ChEMBL document CHEMBL4196115 (ACS Med Chem Lett, 2018) one finds IP, Activity and Drug uptake(free) data, which are given here for 1 compound.

Test [1] concerns the target T1, Muscarinic acetylcholine receptor M1 (Homo sapiens) (UniProt P11229).
T1 sequence (whole entry): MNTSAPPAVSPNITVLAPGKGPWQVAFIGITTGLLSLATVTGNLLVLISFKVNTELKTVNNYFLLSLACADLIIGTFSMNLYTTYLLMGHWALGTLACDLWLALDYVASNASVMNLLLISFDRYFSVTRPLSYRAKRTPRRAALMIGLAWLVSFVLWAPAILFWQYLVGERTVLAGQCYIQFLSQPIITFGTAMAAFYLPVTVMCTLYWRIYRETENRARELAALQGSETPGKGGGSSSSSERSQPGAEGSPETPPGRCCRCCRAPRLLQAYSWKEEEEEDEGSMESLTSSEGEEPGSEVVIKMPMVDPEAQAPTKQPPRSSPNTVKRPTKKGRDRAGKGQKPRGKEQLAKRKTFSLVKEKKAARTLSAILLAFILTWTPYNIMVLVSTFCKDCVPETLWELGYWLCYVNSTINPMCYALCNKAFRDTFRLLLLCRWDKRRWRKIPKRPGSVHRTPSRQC
Put plainly: Positive allosteric modulation of human muscarinic acetylcholine receptor M1 expressed in CHO cells assessed as increase in acetylcholine-induced calcium mobilization pretreated for 4 mins followed by acetylcholine addition and measured after 4 mins by Fluo-4-AM dye based FLIPR assay. It counts as functional, cell-based. On the technique in general: Calcium assays in cells follow changes in intracellular calcium, usually with a dye or a luminescent sensor.

For test [2], the target named is T2, Muscarinic acetylcholine receptor M2 (Homo sapiens) (UniProt P08172).
T2 sequence (whole entry): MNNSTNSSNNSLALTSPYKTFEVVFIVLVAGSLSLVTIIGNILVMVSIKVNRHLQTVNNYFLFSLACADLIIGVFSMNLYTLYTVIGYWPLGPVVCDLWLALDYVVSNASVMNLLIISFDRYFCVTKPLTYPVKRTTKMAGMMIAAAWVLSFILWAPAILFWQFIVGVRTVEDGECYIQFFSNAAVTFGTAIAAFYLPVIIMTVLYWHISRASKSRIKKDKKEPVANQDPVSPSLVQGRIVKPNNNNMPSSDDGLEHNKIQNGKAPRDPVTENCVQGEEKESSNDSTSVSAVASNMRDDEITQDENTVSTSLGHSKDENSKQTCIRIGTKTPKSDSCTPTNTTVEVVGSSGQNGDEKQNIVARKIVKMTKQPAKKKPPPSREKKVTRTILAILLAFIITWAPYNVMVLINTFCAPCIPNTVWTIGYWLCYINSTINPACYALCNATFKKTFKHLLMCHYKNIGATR
In words: Positive allosteric modulation of human muscarinic acetylcholine receptor M2 expressed in CHO cells. The test is classed as functional, cell-based.

In test [3] the target is Muscarinic acetylcholine receptor M3 (Homo sapiens) (UniProt P20309). Put plainly: Positive allosteric modulation of human muscarinic acetylcholine receptor M3 expressed in CHO cells. It counts as functional, cell-based.
Test [4] concerns the target T3, Muscarinic acetylcholine receptor M5 (Homo sapiens) (UniProt P08912).
T3 sequence (whole entry): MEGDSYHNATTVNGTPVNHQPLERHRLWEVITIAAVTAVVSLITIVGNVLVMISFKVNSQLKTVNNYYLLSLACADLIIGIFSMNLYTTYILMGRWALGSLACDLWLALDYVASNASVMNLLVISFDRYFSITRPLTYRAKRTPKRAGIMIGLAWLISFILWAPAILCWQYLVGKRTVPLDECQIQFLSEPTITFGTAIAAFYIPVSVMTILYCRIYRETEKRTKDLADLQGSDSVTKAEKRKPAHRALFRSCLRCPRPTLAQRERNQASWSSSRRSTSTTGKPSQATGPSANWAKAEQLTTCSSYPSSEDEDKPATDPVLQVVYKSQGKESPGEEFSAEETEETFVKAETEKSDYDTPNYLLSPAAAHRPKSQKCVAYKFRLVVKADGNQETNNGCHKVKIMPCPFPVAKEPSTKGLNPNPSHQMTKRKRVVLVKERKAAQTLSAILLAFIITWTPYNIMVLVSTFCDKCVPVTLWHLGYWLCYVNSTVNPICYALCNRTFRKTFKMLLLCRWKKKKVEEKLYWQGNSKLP
In words: Positive allosteric modulation of human muscarinic acetylcholine receptor M5 expressed in CHO cells. It counts as functional, cell-based.

The subject of test [5] is Mus musculus. In words: Antialzheimer activity in mouse assessed as reversal of scopolamine-induced emotional memory deficits by measuring increase in freezing at 3 mg/kg, ip measured after 24 hrs by contextual fear conditioning assay. It counts as functional, organism-based.
For test [6], the system named is Mus musculus. In words: Antialzheimer activity in mouse assessed as unbound brain concentration required for reversal of scopolamine-induced emotional memory deficits by measuring increase in freezing at 3 mg/kg, ip measured after 24 hrs by contextual fear conditioning assay. The test is classed as functional, organism-based.
The target of test [7] is T4, Muscarinic acetylcholine receptor M1 (Mus musculus) (UniProt P12657).
T4 sequence (whole entry): T1 sequence (whole entry) with A5V, T254S, R320K, A337G, I413V
As to conditions: CHO.
Description: Positive allosteric modulation of mouse muscarinic acetylcholine receptor M1 expressed in CHO cells assessed as increase in acetylcholine-induced calcium mobilization pretreated for 4 mins followed by acetylcholine addition and measured after 4 mins by Fluo-4-AM dye based FLIPR assay

The target of test [8] is T5, Muscarinic acetylcholine receptor M1 (Macaca mulatta) (UniProt P56489).
T5 sequence (whole entry): T1 sequence (whole entry) with A265P, E277D
Particulars: CHO.
Description: Positive allosteric modulation of rhesus monkey muscarinic acetylcholine receptor M1 expressed in CHO cells assessed as increase in acetylcholine-induced calcium mobilization pretreated for 4 mins followed by acetylcholine addition and measured after 4 mins by Fluo-4-AM dye based FLIPR assay

Residue numbers refer to the chain shown, from its start. Calls of active or inactive are those of the source. The calls are words filed in the database; no cut-off is given here.

Muscarinic acetylcholine receptor M3 (Homo sapiens), sequence (P20309 whole entry, looked up): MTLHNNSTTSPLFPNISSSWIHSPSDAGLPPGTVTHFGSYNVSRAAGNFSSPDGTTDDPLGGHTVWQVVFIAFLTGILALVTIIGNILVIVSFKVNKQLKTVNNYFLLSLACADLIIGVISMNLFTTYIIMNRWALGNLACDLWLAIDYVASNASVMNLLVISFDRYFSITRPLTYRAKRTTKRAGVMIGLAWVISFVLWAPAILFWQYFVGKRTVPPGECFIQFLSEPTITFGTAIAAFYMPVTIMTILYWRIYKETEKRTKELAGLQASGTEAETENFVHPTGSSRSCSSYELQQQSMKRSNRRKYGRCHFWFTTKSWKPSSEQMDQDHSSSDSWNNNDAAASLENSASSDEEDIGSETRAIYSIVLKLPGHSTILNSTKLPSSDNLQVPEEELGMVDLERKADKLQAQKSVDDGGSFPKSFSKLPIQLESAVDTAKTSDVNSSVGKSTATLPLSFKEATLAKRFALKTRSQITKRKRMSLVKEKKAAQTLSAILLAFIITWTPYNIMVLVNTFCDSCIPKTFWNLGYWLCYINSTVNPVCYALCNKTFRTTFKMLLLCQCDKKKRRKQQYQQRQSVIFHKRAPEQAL

With `Cc1ccc(Cc2cc3c(=O)n([C@H]4CCCC[C@@H]4O)cnc3c3ccccc23)cn1`, the IP in test [1] is 19 nM; in test [7], 6.7 nM; in test [8], 3.8 nM. The outcome in test [2], in test [3] and in test [4] was inactive. The outcome in test [5] was Active. Also, the Drug uptake(free) in test [6] is 24 nM.
